Source: patent US10167283B2, “β-lactamase inhibitors and uses thereof” (priority 2015, dated 2019)
Counter-ions that a name gives are not always drawn.

What was measured:
[1] = tested on: Enterobacter cloacae BAA-2341 (KPC); experiment: In vitro antibacterial activity, agar dilution MIC; assay type: cell-based; conditions: BAA2341; Table 2; BAA-2341 Enterobacter cloacae, KPC; read-out: MIC
Excerpt: (§1) Experimental strains: all experimental standard bacterial strains for enzyme production were purchased from ATCC, and the clinically separated CRE strain was purchased from Southwest Hospital of the Third Military Medical University.
(§2) Experimental Method: Agar dilution method, referring to M100-S23: Performance Standards for Antimicrobial Susceptibility Testing: Twenty-Third Informational Supplement (Clinical And Laboratory Standards Institute, 2013). Minimal inhibitory concentration (MIC, μg/mL) was calculated.

[2] = tested on: Enterobacter hormaechei BAA-2082 (KPC); experiment: In vitro antibacterial activity, agar dilution MIC; assay type: cell-based; conditions: BAA2082; Table 2; BAA-2082 Enterobacter hormaechei, KPC; read-out: MIC
Excerpt: as §1, §2

[3] = tested on: Escherichia coli BAA-2452 (NDM-1); experiment: In vitro antibacterial activity, agar dilution MIC; assay type: cell-based; conditions: BAA2452, Table 2, BAA-2452 Escherichia coli, NDM-1, read-out: MIC
Excerpt: as §1, §2

[4] = tested on: Escherichia coli BAA-2523 (OXA-48); experiment: In vitro antibacterial activity, agar dilution MIC; assay type: cell-based; conditions: BAA2523, Table 2, BAA-2523 Escherichia coli, OXA-48, read-out: MIC
Excerpt: as §1, §2

[5] = tested on: Klebsiella oxytoca ATCC-51983 (SHV-5); experiment: In vitro antibacterial activity, agar dilution MIC; assay type: cell-based; conditions: ATCC51983; Table 2; ATCC-51983 Klebsiella oxytoca, SHV-5; read-out: MIC
Excerpt: as §1, §2

[6] = tested on: Klebsiella pneumoniae BAA-1900 (KPC); experiment: In vitro antibacterial activity, agar dilution MIC; assay type: cell-based; conditions: BAA1900, Table 2, BAA-1900 Klebsiella pneumoniae, KPC, read-out: MIC
Excerpt: as §1, §2

[7] = tested on: Klebsiella pneumoniae BAA-2146 (NDM-1); experiment: In vitro antibacterial activity, agar dilution MIC; assay type: cell-based; conditions: BAA2146, Table 2, BAA-2146 Klebsiella pneumoniae, NDM-1, read-out: MIC
Excerpt: as §1, §2

[8] = tested on: Klebsiella pneumoniae BAA-2524 (OXA-48); experiment: In vitro antibacterial activity, agar dilution MIC; assay type: cell-based; conditions: BAA2524; Table 2; BAA-2524 Klebsiella pneumoniae, OXA-48; read-out: MIC
Excerpt: as §1, §2

[9] = tested on: Citrobacter freundii 7520cfr-167 (NDM, OXA-10, ESBLs); experiment: In vitro antibacterial activity on clinically separated CRE strain, agar dilution MIC; assay type: cell-based; conditions: Table 3, 7520cfr-167 Citrobacter freundii
Excerpt: as §1, §2

[10] = tested on: Citrobacter freundii 7521cfr-169 (NDM, ESBLs, AmpC); experiment: as above; assay type: cell-based; conditions: Table 3, 7521cfr-169 Citrobacter freundii
Excerpt: as §1, §2

[11] = tested on: Enterobacter cloacae 7494ecl-295 (NDM, ESBLs, AmpC); experiment: as above; assay type: cell-based; conditions: Table 3, 7494ecl-295 Enterobacter cloacae
Excerpt: as §1, §2

[12] = tested on: Enterobacter cloacae 7495ecl-296 (IMP, ESBLs, AmpC); experiment: as above; assay type: cell-based; conditions: Table 3, 7495ecl-296 Enterobacter cloacae
Excerpt: as §1, §2

[13] = tested on: Enterobacter cloacae 7498ecl-299 (ESBLs, AmpC); experiment: as above; assay type: cell-based; conditions: Table 3, 7498ecl-299 Enterobacter cloacae
Excerpt: as §1, §2

[14] = tested on: Enterobacter cloacae 7513ecl-314 (AmpC); experiment: as above; assay type: cell-based; conditions: Table 3, 7513ecl-314 Enterobacter cloacae
Excerpt: as §1, §2

[15] = tested on: Escherichia coli 7438eco-639 (NDM, ESBLs); experiment: as above; assay type: cell-based; conditions: Table 3, 7438eco-639 Escherichia coli
Excerpt: as §1, §2

[16] = tested on: Klebsiella pneumoniae 7450kpn-597 (KPC, ESBLs); experiment: as above; assay type: cell-based; conditions: Table 3, 7450kpn-597 Klebsiella pneumoniae
Excerpt: as §1, §2

[17] = tested on: Klebsiella pneumoniae 7463kpn-610 (ESBLs); experiment: as above; assay type: cell-based; conditions: Table 3, 7463kpn-610 Klebsiella pneumoniae
Excerpt: as §1, §2

[18] = tested on: Klebsiella pneumoniae 7484kpn-631 (IMP, ESBLs); experiment: as above; assay type: cell-based; conditions: Table 3, 7484kpn-631 Klebsiella pneumoniae
Excerpt: as §1, §2

[19] = target: T1, AmpC (UniProt P05364); experiment: β-lactamase inhibition, Nitrocefin hydrolysis; assay type: biochemical; conditions: read-out: IC50 AmpC; Experiment 2; enzyme 1.6 nM, Nitrocefin 0.1 mM
T1 construct: The concentration of purchased β-lactamases mother liquor was 1 mg/mL, and the mother liquor was dissolved in 50% glycerol
Procedure: (§3) Nitrocefin, a kind of cephalosporin antibiotics, is sensitive to most of β-lactamases, and changes in color after being hydrolyzed. The hydrolysis rate of Nitrocefin was measured by real-time recording corresponding absorbance of reaction system. β-Lactamase inhibitors could inhibit hydrolysis of the enzymes to Nitrocefin, and reduce hydrolysis rate. By measuring reaction rates in the same reaction system under different inhibitor concentrations, the IC50 (half maximal inhibitory concentration) values of inhibitors were calculated.
(§4) Nitrocefin was dissolved in DMSO to form a solution with concentration of 2 mM, which was sub-packaged and stored at −20° C. The concentration of purchased β-lactamases mother liquor was 1 mg/mL, and the mother liquor was dissolved in 50% glycerol. A part of mother liquor was taken and diluted by 1000 times in reaction solution, sub-packaged and stored at ˜20° C.
(§5) The compounds to be tested were dissolved in DMSO to form a mother liquor with concentration of 10 mM. If not used that day, the mother liquor was stored at −20° C. Its test final concentrations were: 100 μM, 25 μM, 6.25 μM, 1.563 μM, 390.6 nM, 97.66 nM, 24.41 nM, 6.10 nM, 1.53 nM, 0.381 nM, 0.095 nM.

[20] = target: T2, CTX-M-1 (Escherichia coli, UniProt P28585); experiment: β-lactamase inhibition, Nitrocefin hydrolysis; assay type: biochemical; conditions: Experiment 2; enzyme 0.2 nM, Nitrocefin 0.1 mM
T2 construct: purchased
Procedure: as §3, §4, §5

[21] = target: T3, KPC-2 (Klebsiella pneumoniae, UniProt Q9F663); experiment: β-lactamase inhibition, Nitrocefin hydrolysis; assay type: biochemical; conditions: Experiment 2; enzyme 1.28 nM, Nitrocefin 0.1 mM; read-out: IC50 KPC-2
T3 construct: purchased
Procedure: as §3, §4, §5

[22] = target: T4, TEM-1 (Escherichia coli, UniProt P62593); experiment: β-lactamase inhibition, Nitrocefin hydrolysis; assay type: biochemical; conditions: Experiment 2; enzyme 1 nM, Nitrocefin 0.1 mM; read-out: IC50 TEM-1
T4 construct: purchased
Procedure: as §3, §4, §5

T2 sequence (P28585 29-291): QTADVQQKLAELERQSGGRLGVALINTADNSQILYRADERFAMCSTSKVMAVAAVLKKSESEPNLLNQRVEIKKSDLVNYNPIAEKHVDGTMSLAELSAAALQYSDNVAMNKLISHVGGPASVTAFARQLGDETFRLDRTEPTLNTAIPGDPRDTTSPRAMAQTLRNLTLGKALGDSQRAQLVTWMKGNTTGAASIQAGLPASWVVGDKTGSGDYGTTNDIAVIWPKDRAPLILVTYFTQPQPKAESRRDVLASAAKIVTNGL
T4 sequence (P62593 24-286 limits assumed): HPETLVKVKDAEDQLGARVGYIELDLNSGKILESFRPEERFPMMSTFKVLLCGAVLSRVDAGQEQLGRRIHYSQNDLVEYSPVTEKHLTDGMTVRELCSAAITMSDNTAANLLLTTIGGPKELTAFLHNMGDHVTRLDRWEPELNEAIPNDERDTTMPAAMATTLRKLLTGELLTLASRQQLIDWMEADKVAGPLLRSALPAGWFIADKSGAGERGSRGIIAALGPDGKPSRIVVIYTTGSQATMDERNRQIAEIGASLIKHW
T3 sequence (Q9F663 25-293, looked up, species assumed): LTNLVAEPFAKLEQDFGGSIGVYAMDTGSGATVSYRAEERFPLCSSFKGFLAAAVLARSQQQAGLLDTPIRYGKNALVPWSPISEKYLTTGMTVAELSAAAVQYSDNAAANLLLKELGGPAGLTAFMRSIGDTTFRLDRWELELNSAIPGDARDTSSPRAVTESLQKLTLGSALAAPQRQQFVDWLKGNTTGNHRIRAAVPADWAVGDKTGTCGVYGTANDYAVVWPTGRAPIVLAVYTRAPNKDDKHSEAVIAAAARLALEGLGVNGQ

**Q.** Which MIC [1] does the source give for `CN1CC2(CC(NC(=O)[C@@H]3CC[C@@H]4CN3C(=O)N4OS(=O)(=O)O)C2)C1` [Compound 6, sodium (2S,5R)-2-((2-methyl-2-azaspiro[3.3]heptan-6-yl)carbamoyl)-7-oxo-1,6-diazabicyclo[3.2.1]octan-6-yl hydrogen sulfate] here?
**A.** Its MIC is 2 µg/mL.

**Q.** And the MIC [2]?
**A.** The MIC was 2 µg/mL.

**Q.** What about the MIC [3] of the same molecule?
**A.** The MIC was 2 µg/mL.

**Q.** What about the MIC [4] of the same molecule?
**A.** Its MIC is 1 µg/mL.

**Q.** What about the MIC [5] of the same molecule?
**A.** Its MIC is 4 µg/mL.

**Q.** And the MIC [6]?
**A.** The MIC was 2 µg/mL.

**Q.** And the MIC [7]?
**A.** Its MIC is 4 µg/mL.

**Q.** What about the MIC [8] of the same molecule?
**A.** The MIC was 2 µg/mL.

**Q.** And the MIC [9]?
**A.** Its MIC is 2 µg/mL.

**Q.** And the MIC [10]?
**A.** Its MIC is 2 µg/mL.

**Q.** And the MIC [11]?
**A.** The MIC was 2 µg/mL.

**Q.** And the MIC [12]?
**A.** Its MIC is 2 µg/mL.

**Q.** What about the MIC [13] of the same molecule?
**A.** Its MIC is 2 µg/mL.

**Q.** What about the MIC [14] of the same molecule?
**A.** Its MIC is 2 µg/mL.

**Q.** And the MIC [15]?
**A.** Its MIC is 2 µg/mL.

**Q.** What about the MIC [16] of the same molecule?
**A.** Its MIC is 2 µg/mL.

**Q.** And the MIC [17]?
**A.** Its MIC is 2 µg/mL.

**Q.** And the MIC [18]?
**A.** Its MIC is 4 µg/mL.

**Q.** And the IC50 [19]?
**A.** Its IC50 is 0.0177 µM.

**Q.** What about the IC50 [20] of the same molecule?
**A.** The IC50 was 0.0408 µM.

**Q.** And the IC50 [21]?
**A.** The IC50 was 0.0423 µM.

**Q.** What about the IC50 [22] of the same molecule?
**A.** The IC50 was 0.0301 µM.
